What was measured:
[1] = tested on: hippocampal genes (mRNA levels); assay: Microarray analysis (GeneChip Rat Neurobiology U34) of gene expression in hippocampus of rats treated chronically with antidepressants; format: in vivo; conditions: for hippocampal genes commonly regulated by desipramine and bupropion (list: NG,NG dimethylarginine dimethylaminohydrolase ... Retina S-antigen): desipramine 10 mg/kg/d; for hippocampal genes commonly regulated by desipramine and bupropion (list: NG,NG dimethylarginine dimethylaminohydrolase ... Retina S-antigen) / hippocampal genes commonly regulated by fluoxetine and bupropion (list: Transferrin ... Carbonic anhydrase 2): bupropion 20 mg/kg/day; for hippocampal genes commonly regulated by desipramine and bupropion (list: NG,NG dimethylarginine dimethylaminohydrolase ... Retina S-antigen) / hippocampal genes commonly regulated by fluoxetine and bupropion (list: Transferrin ... Carbonic anhydrase 2) / hippocampal genes commonly regulated by fluoxetine and desipramine (list: Glutathione peroxidase 1 ... Insulin like growth factor II, Somatostatin): i.p., four weeks, vs saline; for hippocampal genes commonly regulated by desipramine and bupropion (list: NG,NG dimethylarginine dimethylaminohydrolase ... Retina S-antigen) / hippocampal genes commonly regulated by fluoxetine and desipramine (list: Glutathione peroxidase 1 ... Insulin like growth factor II, Somatostatin): >20% fold change, p<0.05; for hippocampal genes commonly regulated by fluoxetine and bupropion (list: Transferrin ... Carbonic anhydrase 2): fluoxetine 10 mg/kg/d, selected results confirmed by real time RT-PCR; for hippocampal genes commonly regulated by fluoxetine and desipramine (list: Glutathione peroxidase 1 ... Insulin like growth factor II, Somatostatin): 10 mg/kg/d each
Experimental: (§1) Adult Sprague-Dawley male rats (250-300 g) were assigned to one of the following four groups (n=10 per group): 1. Saline injected animals (controls). 2. Bupropion treated animals. 3. Desipramine treated animals, and 4. Fluoxetine treated animals. Bupropion (20 mg/kg/day), Desipramine (10 mg/kg/d), Fluoxetine (10 mg/kg/d) and Saline were injected twice daily intraperitoneal (i.p.) for four weeks. Animals were sacrificed in the AM, the day after the last injection. Brains were obtained by rapid decapitation, and processed for gene array analysis (GAA), RT-PCR and in situ hybridization.
(§2) Four brains from each group were used for GAA, and real time RT-PCR confirmation. The remaining six brains were sectioned for in situ hybridization confirmation of the gene array analysis.
(§3) Array analysis was done using GeneChip® Rat Neurobiology U34 Arrays (Affymetrix). Whole hippocampus were dissected and total RNA samples were extracted using standard methods (Trizol, Invitrogen; Quigen Rneasy Mini Kit). Total RNA from each of the experimental groups were pooled. The column purified total RNA (10 μg) was converted to biotinylated cRNA hybridization probe following the manufacturers protocol. Labeled cRNA (30 ug) was fragmented in fragmentation buffer, and 15 ug were hybridized to the oligonucletide microarray in 300 μl of hybridization solution.
(§4) Samples from each group were run in independently labeled triplicates. The raw intensity data was analyzed with dCHIP software (Li and Wong, 2002).
Using a criteria of greater than 20% fold change (90% lower bound confidence limit) and a t-test value yielding a probability of p<0.05, we found 28 genes that were regulated by all three antidepressants compared to saline treatment. Nine of these genes were ESTs.
Regulation of these genes can conveniently be confirmed by Real Time RT-PCR, and in situ hybridization. Regulation of two of the genes has been confirmed by RT-PCR.

[2] = tested on: hypothalamic genes (mRNA levels); assay: Microarray analysis of gene expression in hypothalamus of rats treated chronically with antidepressants; format: in vivo, rat; conditions: rats treated with fluoxetine, bupropion and/or desipramine; i.p. twice daily for four weeks
Excerpt: Membrane microarray analysis was used to compare expression levels of over 8,000 genes in the hypothalamus of rats treated chronically with a specific serotonin reuptake inhibitor (i.e., fluoxetine), a tricyclic antidepressant (i.e., desipramine), and a dopamine reuptake inhibitor (i.e., bupropion).
as §1, §2, §3, §4
Genes were identified using a criteria of greater than 20% fold change (90% lower bound confidence limit) and a t-test value yielding a probability of p<0.05.
The microarray analysis results were confirmed by in situ hybridization.

[3] = rats treated with bupropion and/or fluoxetine
[4] = rats treated with desipramine and/or bupropion
[5] = rats treated with fluoxetine, bupropion and/or desipramine, i.p. twice daily for four weeks
[6] = rats treated with fluoxetine and/or desipramine

SMILES	hippocampal genes commonly regulated by desipramine and bupropion (list: NG,NG dimethylarginine dimethylaminohydrolase ... Retina S-antigen) [1]	hippocampal genes commonly regulated by fluoxetine and bupropion (list: Transferrin ... Carbonic anhydrase 2) [1]	number of hippocampal genes with altered mRNA levels [1, 3]	number of hippocampal genes with altered mRNA levels [1, 4]	number of hippocampal genes with altered mRNA levels [1, 5]	number of hypothalamic genes with altered mRNA levels [2]	hippocampal genes commonly regulated by fluoxetine and desipramine (list: Glutathione peroxidase 1 ... Insulin like growth factor II, Somatostatin) [1]	number of hippocampal genes with altered mRNA levels [1, 6]
CC(NC(C)(C)C)C(=O)c1cccc(Cl)c1 (stereo not drawn) [bupropion]	commonly regulated	commonly regulated	11	46	18	3	–	–
CNCCCN1c2ccccc2CCc2ccccc21 [desipramine]	commonly regulated	–	–	46	18	3	commonly regulated	33
CNCCC(Oc1ccc(C(F)(F)F)cc1)c1ccccc1 (stereo not drawn) [fluoxetine]	–	commonly regulated	11	–	18	3	commonly regulated	33
